Calls of active or inactive are those of the source. No cut-off for these calls is given here.
Assays:
[1] = biological target: Xanthine dehydrogenase/oxidase (Homo sapiens, UniProt P47989); test: Inhibition of XOR (unknown origin) using xanthine as substrate measured for 10 mins by spectrophotometry
URAT1 (SLC22A12) = biological target: T1, URAT1 (SLC22A12) (Homo sapiens, UniProt Q96S37); test: Inhibition of human URAT1 expressed in HEK293T cells using 6-carboxylic fluorescein substrate at 100 uM by fluorescence assay relative to control; assay type: cell-based; conditions: HEK293T cells expressing human URAT1, probe 6-carboxylic fluorescein
T1 sequence (Q96S37 whole entry): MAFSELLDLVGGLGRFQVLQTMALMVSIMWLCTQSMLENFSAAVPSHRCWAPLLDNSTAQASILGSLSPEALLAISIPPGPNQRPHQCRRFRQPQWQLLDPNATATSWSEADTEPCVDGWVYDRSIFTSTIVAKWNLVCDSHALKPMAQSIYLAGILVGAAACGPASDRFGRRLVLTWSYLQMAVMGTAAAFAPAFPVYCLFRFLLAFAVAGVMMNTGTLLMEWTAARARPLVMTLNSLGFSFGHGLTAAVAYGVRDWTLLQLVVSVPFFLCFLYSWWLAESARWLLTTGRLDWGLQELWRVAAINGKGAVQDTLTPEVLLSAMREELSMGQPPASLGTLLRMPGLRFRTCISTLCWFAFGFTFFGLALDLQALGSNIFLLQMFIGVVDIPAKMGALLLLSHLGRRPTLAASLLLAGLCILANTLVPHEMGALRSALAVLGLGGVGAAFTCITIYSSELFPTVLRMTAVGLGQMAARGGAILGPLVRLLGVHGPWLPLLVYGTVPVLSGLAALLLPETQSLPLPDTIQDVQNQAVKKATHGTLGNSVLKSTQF

[2] = biological target: T2, Solute carrier family 22 member 12 (Homo sapiens, UniProt Q96S37); test: Inhibition of human URAT1 expressed in HEK293T cells using 6-carboxylic fluorescein substrate by fluorescence assay; assay type: cell-based
T2 sequence (Q96S37 whole entry): T1 sequence (Q96S37 whole entry)

[3] = biological target: T2, Solute carrier family 22 member 12; test: Inhibition of human URAT1 expressed in HEK293T cells using 6-carboxylic fluorescein substrate at 1000 uM by fluorescence assay; assay type: cell-based
Mus musculus [4] = test: Hypouricemic effect in potassium oxonate/hypoxanthine-induced acute hyperuricemia ICR mouse model assessed as decrease in serum uric acid level at 5 mg/kg, gavage measured after 3 to 9 hrs of drug administration; assay type: functional, organism-based; conditions: time 3-9 hrs
Mus musculus [5] = test: Hypouricemic effect in potassium oxonate/hypoxanthine-induced acute hyperuricemia ICR mouse model assessed as decrease in serum uric acid level measured after 1 hr drug administration; assay type: functional, organism-based

Xanthine dehydrogenase/oxidase, sequence (P47989 whole entry): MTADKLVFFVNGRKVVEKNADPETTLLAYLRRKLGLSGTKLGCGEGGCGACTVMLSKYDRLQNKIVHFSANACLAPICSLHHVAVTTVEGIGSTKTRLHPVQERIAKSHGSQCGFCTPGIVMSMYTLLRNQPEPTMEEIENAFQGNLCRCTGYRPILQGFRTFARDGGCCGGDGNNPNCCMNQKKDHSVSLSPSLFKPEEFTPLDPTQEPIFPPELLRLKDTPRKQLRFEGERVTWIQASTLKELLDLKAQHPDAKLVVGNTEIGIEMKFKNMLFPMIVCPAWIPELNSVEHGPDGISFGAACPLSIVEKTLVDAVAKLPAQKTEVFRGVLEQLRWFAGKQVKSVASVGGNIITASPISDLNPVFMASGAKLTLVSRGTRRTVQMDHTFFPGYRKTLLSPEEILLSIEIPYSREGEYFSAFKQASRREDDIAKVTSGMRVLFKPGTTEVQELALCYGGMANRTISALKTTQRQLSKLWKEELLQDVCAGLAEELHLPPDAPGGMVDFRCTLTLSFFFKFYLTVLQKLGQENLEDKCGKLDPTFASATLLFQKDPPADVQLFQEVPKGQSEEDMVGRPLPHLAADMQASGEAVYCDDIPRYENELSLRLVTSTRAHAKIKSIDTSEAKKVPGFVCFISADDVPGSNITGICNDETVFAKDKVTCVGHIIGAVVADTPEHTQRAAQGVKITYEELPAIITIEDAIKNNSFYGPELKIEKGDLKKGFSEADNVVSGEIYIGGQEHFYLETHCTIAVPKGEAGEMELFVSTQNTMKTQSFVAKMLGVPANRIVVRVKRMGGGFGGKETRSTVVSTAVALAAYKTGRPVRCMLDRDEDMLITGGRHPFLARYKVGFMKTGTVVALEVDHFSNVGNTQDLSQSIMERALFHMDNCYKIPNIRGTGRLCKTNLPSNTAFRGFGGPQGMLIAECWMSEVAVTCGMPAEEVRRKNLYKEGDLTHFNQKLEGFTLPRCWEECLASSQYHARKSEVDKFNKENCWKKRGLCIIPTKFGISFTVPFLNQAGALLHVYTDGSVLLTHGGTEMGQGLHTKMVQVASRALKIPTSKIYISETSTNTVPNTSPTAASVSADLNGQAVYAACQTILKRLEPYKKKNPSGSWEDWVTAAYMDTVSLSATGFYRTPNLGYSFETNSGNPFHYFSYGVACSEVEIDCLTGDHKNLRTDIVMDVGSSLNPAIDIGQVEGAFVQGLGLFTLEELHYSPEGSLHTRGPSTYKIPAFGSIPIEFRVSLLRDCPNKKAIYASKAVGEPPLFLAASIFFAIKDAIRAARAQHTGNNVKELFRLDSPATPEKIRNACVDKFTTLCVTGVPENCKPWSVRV

Row | IC50 [1] [µM] | IC50 [2] [µM] | Structure (SMILES) | also measured
1 | 0.008 |  | Cc1nc(-c2ccc(OCC(C)C)c(C#N)c2)sc1C(=O)O [FEBUXOSTAT] | 
2 | 6.4 |  | CC(=O)c1ccc(-c2cncc(C(=O)NC(C)C)c2)cc1 | inhibition at 100 µM (URAT1 (SLC22A12)): 15.6%
3 | 0.045 | 55.9 | O=C(O)c1ccc(-c2cncc(Oc3cccc(Cl)c3)c2)cc1O | 
4 | 3.95 |  | Cc1nc(C)c(-c2csc(Nc3ccc(O)c(C(=O)O)c3)n2)s1 | inhibition at 100 µM (URAT1 (SLC22A12)): 35.5%
5 | 0.026 | 86.2 | Cc1cccc(Oc2cncc(-c3ccc(C(=O)O)c(O)c3)c2)c1 | 
6 | 0.006 | 12.9 | O=C(O)c1ccc(-c2cncc(Nc3cccc(Cl)c3)c2)cc1O | 
7 | 0.035 | 106 | Cc1ccc(Oc2cncc(-c3ccc(C(=O)O)c(O)c3)c2)cc1 | 
8 | 0.019 | 80.7 | O=C(O)c1ccc(-c2cncc(Nc3ccc(Cl)c(Cl)c3)c2)cc1O | 
9 | > 100 | > 1000 | CC(C)NC(=O)c1cncc(-c2ccc(F)c(C(=O)O)c2)c1 | 
10 | > 100 |  | CC(C)NC(=O)c1cncc(-c2cccc(C(=O)O)c2)c1 | inhibition (INH) [3]: Not Active
11 | 0.015 | 91.2 | O=C(O)c1ccc(-c2cncc(Nc3ccc(F)cc3)c2)cc1O | 
12 | 0.016 | 36.8 | O=C(O)c1ccc(-c2cncc(Nc3ccc(F)c(Cl)c3)c2)cc1O | 
13 | 80 | 221 | CC(C)NC(=O)c1cncc(-c2ccc(O)c(C(=O)O)c2)c1 | 
14 | 0.021 | 53.6 | Cc1ccc(Nc2cncc(-c3ccc(C(=O)O)c(O)c3)c2)cc1C | 
15 | 0.013 | 57.8 | O=C(O)c1ccc(-c2cncc(Nc3ccc(Cl)cc3)c2)cc1O | 
16 | 0.016 | 58.3 | COc1ccc(Nc2cncc(-c3ccc(C(=O)O)c(O)c3)c2)cc1 | 

Row | IC50 [1] [µM] | IC50 [2] [µM] | Structure (SMILES) | also measured
17 | 0.041 | 70.3 | CC(C)(C)c1ccc(Nc2cncc(-c3ccc(C(=O)O)c(O)c3)c2)cc1 | 
18 | 0.036 | 86.7 | O=C(O)c1ccc(-c2cncc(Oc3ccccc3)c2)cc1O | Activity (Mus musculus [4]): Active; Activity (Mus musculus [5]): inactive
19 |  |  | CCc1oc2ccccc2c1C(=O)c1cc(Br)c(O)c(Br)c1 | Activity (Mus musculus [4]): Active
20 | 0.004 | 43.6 | Cc1ccc(Nc2cncc(-c3ccc(C(=O)O)c(O)c3)c2)cc1 | 
21 | 0.026 | 31.5 | CCc1ccc(Nc2cncc(-c3ccc(C(=O)O)c(O)c3)c2)cc1 | 
22 | 0.04 | 134 | O=C(O)c1ccc(-c2cncc(Oc3ccc(F)cc3)c2)cc1O | 
23 | 0.03 | 30.6 | Cc1ccc(Nc2cncc(-c3ccc(C(=O)O)c(O)c3)c2)cc1F | 
24 | 0.043 | 51.7 | Cc1ccc(Nc2cncc(-c3ccc(C(=O)O)c(O)c3)c2)cc1Cl | 
25 | 0.038 | 64.6 | O=C(O)c1ccc(-c2cncc(Oc3ccc(Cl)cc3)c2)cc1O | 
26 | 0.023 | 56.9 | Cc1cccc(Nc2cncc(-c3ccc(C(=O)O)c(O)c3)c2)c1 | 
27 | > 100 | > 1000 | CC(C)NC(=O)c1cncc(-c2ccc(Cl)c(C(=O)O)c2)c1 | 
28 | 0.121 | 124 | CC(C)(C)c1ccc(Oc2cncc(-c3ccc(C(=O)O)c(O)c3)c2)cc1 | Activity (Mus musculus [4]): Active; Activity (Mus musculus [5]): inactive
29 | 0.037 | 547 | CC(C)NC(=O)c1cncc(-c2ccc(C(=O)O)c(O)c2)c1 | 
30 | 0.026 | 33.4 | O=C(O)c1ccc(-c2cncc(Nc3ccccc3)c2)cc1O | 
31 | 75.4 |  | CC(C)NC(=O)c1cncc(-c2ccc(C#N)cc2)c1 | inhibition (INH) [3]: Not Active
32 | 0.59 |  | CC(C)NC(=O)c1cncc(-c2ccc(C(=O)O)cc2)c1 | inhibition (INH) [3]: Not Active

Source: ChEMBL document CHEMBL5512661, “Design, synthesis, and biological evaluation of 3-phenyl substituted pyridine derivatives as potential dual inhibitors of XOR and URAT1” (Eur J Med Chem, 2024)
